Columns and labels:
L428s = experiment: Clonogenic survival in methylcellulose, L428s; assay type: cell-based, human; settings: very low doses (0.1 and 0.5 μmol)
Experimental: In all examples, the human Hodgkin lymphoma-derived cell lines L428, L428-c, KMH2, L591, L540, L1236, HDLM2 and SUP-HD were obtained from Dr Steffen Junker (Aarhus University Denmark). All cell lines were cultured in Gibco RPMI 1640 medium supplemented with Glutamax, 10% FBS and antibiotics at 37° C. […] The immunophenotype, P53 status and MSI characterization of the Hodgkin lymphoma cell lines was determined using anti-CD30, CD15, CD20 and CD14 antibodies.
This test was performed on four Hodgkin lymphoma cell lines (L428, L428s, KMH2 and L540). Each was cultured with EDO-S101 at doses of 0, 0.1, 0.5, 1, 10 and 20 μmol in DMSO. The cell lines were cultured in methylcellulose (Stem cell Technologies) at a concentration of 10^5/ml at 37° C. and 5% CO2. The surviving fraction was determined by measuring the viability of colonies generated before and after exposure. Only colonies with more than 50 cells were counted. Each data point represents the average and SD from three independent experiments performed in triplicate.

CD14 cells = experiment: CD14-positive cells by flow cytometry in xenografted NSG mice; assay type: in vivo
Experimental: Cells were gated to exclude apoptotic or necrotic cells and sorted into CD30−/CD15− and CD30+ and CD15+/CD30+ fractions by gating on the lowest and highest 5% PE-expressing cells, respectively. Following sorting, the CD30−/CD15− cell fractions were analyzed using a FACScan flow cytometer (Becton Dickinson) and found to be more than 98% pure. For phenotypic analyses of cell lines or sorted cells, cells were prepared as described, and then stained with mouse anti-human CD30-phycoerthrin (PE), CD15—fluorescein isothyocyanate (FITC), CD14-APC-cyanine 7 (Cy7) and CD45-APC (all antibodies from BD PharMingen, San Diego, CA). […] Cells were subsequently analysed using a FACS LSRII (Becton Dickinson, Franklin Lakes, NJ). […]
Novel biomarkers CD68 and CD14 which are expressed by tumour associated macrophages and myeloid derived suppressor cells respectively in the microenvironment have recently been reported to affect the prognosis of Hodgkin lymphoma (Haematologica, 2011 February; 96(2): 186-189). The presence of the CD14-positive cells following administration of a single dose of EDO-S101 (60 mg/kg or 80 mg/kg) and after two administrations of EDO-S101 at 60 mg/kg was evaluated using flow cytometry with anti CD14 antibodies.

L1236 = experiment: Combination with Brentuximab Vedotin, % survival, L1236; assay type: cell-based, human; settings: EDO-S101 1.56 μM (sub-IC50) with Brentuximab Vedotin 3.12 μg/ml
Experimental: 1.56 μM of EDO-S101 was administered to two Hodgkin lymphoma cell lines, the bendamustine naïve cell line L1236 and the bendamustine resistant cell line R100. In a second experiment, Brentuximab Vedotin was administered at a concentration of 3.12 μg/ml to the L1236 cell line and at a concentration of 0.39 μg/ml to the R100 cell line. Finally, in a third experiment EDO-S101 and Brentuximab Vedotin were administered in combination to each of the two cell lines at the same concentrations that they were administered in the monotherapy experiments.

L428 cells = experiment: Cytogenetic analysis of cells from xenografted mice; assay type: in vivo, NSG mice; settings: different doses, including a single dose of 60 mg/kg
Experimental: Separated cells were cultured in the presence of RPMI 1640 supplemented with 10% Fetal Calf Serum (FCS) and antibiotics, colcemid (0.1 μg/ml) added 2 h before harvesting, and the slides with metaphase chromosomes prepared following the standard methanol/acetic acid (3/1, v/v) procedure.
Four new cell lines were generated after one month of in vitro culture following 24 hour of exposure to EDO-S101. Fluorescence in situ hybridysation (FISH) was performed using a combination of standard procedures from the recommended protocols for chromosomal analysis, following telomere and centromere staining, using peptide nucleic acid (PNA) probes in order to detect unstable chromosomal aberrations and to delimit the chromosome territory. M-FISH was performed using multi-FISH probes (Metasystems GmbH, Altlussheim, Germany), according to the manufacturer's recommendations on the same slide. Images of hybridized metaphases were captured using a charge coupled device camera (Zeiss, Thornwood, NY) coupled to a Zeiss Axioplan microscope and processed using ISIS software (Metasystems).
The ocular tumour masses were harvested, as well as cells which infiltrated the liver. Five new cell lines were established from ocular tumours and the livers of both control mice (PBS or vehicle). […]

[1] = tested on: Hodgkin lymphoma cell lines; experiment: Apoptosis by annexin V-FITC and Hoechst double staining, 7 cell lines; assay type: cell-based, human; settings: 5 μM; 24 h and 48 h; all cells
Experimental: This assay was performed on 7 cell lines (HDLM2 was excluded due to the low number of available cells) at 24 h and 48 h following EDO-S101 treatment (5 μM, DMSO). Control cells were cultured in the same final concentration of DMSO. Only viable cells (using Hoechst staining) were focused on, and all necrotic cells were excluded. Apoptosis was determined using annexin V-FITC and Hoechst (33342) double staining according to the manufacturer's instructions (BD Biosciences). Cell-cycle fractions were determined by Hoechst nuclear staining. Briefly, cells were harvested, washed in PBS, incubated with annexin V-FITC and Hoechst solution for 30 minutes at room temperature. Data were collected using a FACSCalibur flow cytometer (BD Biosciences) and analyzed with FlowJo Version 7.5.5 obtainable from FlowJo, LLC. Results represent the mean value of 3 independent experiments.

Cn1c(CCCCCCC(=O)NO)nc2cc(N(CCCl)CCCl)ccc21 [EDO-S101]
clones observed (clonogenic survival) (L428s): only macrophagic clones being observed | frequency of CD14 cells, untreated versus treated mice (CD14 cells; 60 mg/kg, 80 mg/kg, 2×60 mg/kg): significantly higher frequency of CD14 cells in untreated mice compared to treated mice | frequency of CD14 cells, 2×60 mg/kg versus 80 mg/kg (CD14 cells; mouse, in vivo): higher frequency following treatment with 2×60 mg/kg than treatment with a single dose of 80 mg/kg | cell death in combination with Brentuximab Vedotin (L1236): synergistic | metaphases and cell lines from cells of treated mice (L428 cells): not possible to obtain either metaphases from direct culture or establish cell lines | sensitivity for apoptosis [1]: high sensitivity

— patent US12440475B2, “Hodgkin lymphoma therapy” (priority 2016, dated 2025)
